According to US20240334933A1, “USE OF COMPOSITIONS WITH ETHOFUMESATE AND BIXLOZONE IN WHEAT CROPS” (BAYER AKTIENGESELLSCHAFT, priority 2021, published 2024):
Like-named read-outs stand apart in the source and are kept apart here.

Experiments:
wheat crop plants = assay: Own experiments: safening effect of mefenpyr-diethyl used with flufenacet; assay type: in vivo; conditions: used with flufenacet (WSSA group 15 herbicide)
[1] = tested on: annual bluegrass (Poa annua L.); conditions: pre-emergence or early post-emergence at 0.8 to 4.5 kg/ha; cited from earlier work
barley and wheat = conditions: greenhouse studies; cited from earlier work
corn = conditions: applied 3 weeks before planting at rates of 2.2 to 9.0 kg/ha; cited from earlier work
[2] = tested on: volunteer wheat (Triticum aestivum L.); conditions: cited from earlier work

Question: With `CCOC(=O)C1=NN(c2ccc(Cl)cc2Cl)C(C)(C(=O)OCC)C1` (stereo not drawn) [Mefenpyr-diethyl, ethyl 1-(2,4-dichlorophenyl)-5-(ethoxycarbonyl)-5-methyl-2-pyrazoline-3-carboxylate] as the compound, how does the “safening effect in wheat crop plants” value (wheat crop plants) read?
Answer: does not have a safening effect

Question: Which “control of annual bluegrass” value [1] does the source give for `CCOC1Oc2ccc(OS(C)(=O)=O)cc2C1(C)C` (stereo not drawn) [Ethofumesate, 2-ethoxy-2,3-dihydro-3,3-dimethylbenzofuran-5-yl methanesulfonate] here?
Answer: eliminated annual bluegrass

Question: What about the “susceptibility of barley and wheat to soil residues relative to corn” value (barley and wheat) of the same compound?
Answer: about 10 times

Question: And the corn yields (corn)?
Answer: reduced in proportion to the rate

Question: What about the “control of volunteer wheat” value ([2]; 1.7 kg/ha or more, wheat in the one- to three-leaf stage) of the same compound?
Answer: eliminated the wheat

Question: And the “control of volunteer wheat” value ([2]; applied pre-emergence soon after planting or at the end of November to wheat in the four-leaf to four-tiller stage)?
Answer: Wheat was not eliminated
